The values that follow come from ChEMBL document CHEMBL1144037, “Structural requirements for the stability of novel cephalosporins to AmpC beta-lactamase based on 3D-structure” (2008).

As usually defined, the MIC is the lowest concentration found to suppress growth.

Common to all, as to assay type: functional
Experiment [1] has as its system Pseudomonas aeruginosa. Briefly: Antibacterial activity against Pseudomonas aeruginosa PAO1 ampD-deffective mutant after 18 hrs by agar dilution method. As to conditions: PAO1, 18 h. A general note: In agar dilution, organisms are placed on agar that contains the substance at set levels.
In experiment [2] the test system is Pseudomonas aeruginosa. The experiment in a line: Antibacterial activity against Pseudomonas aeruginosa PAO1 after 18 hrs by agar dilution method. As to conditions: PAO1, 18 h.
The subject of experiment [3] is Pseudomonas aeruginosa. The experiment in a line: Antibacterial activity against Pseudomonas aeruginosa FP1380 after 18 hrs by agar dilution method. Conditions: FP1380, 18 h.

In brackets after ≈: the same amount, converted by molar mass.

For the compound `Cn1c(CCN)cc[n+]1CC1=C(C(=O)[O-])N2C(=O)[C@@H](NC(=O)/C(=N\OC(C)(C)C(=O)O)c3nsc(N)n3)[C@H]2SC1.O=S(=O)(O)O`, the figures for the MIC with Pseudomonas aeruginosa [1] and with Pseudomonas aeruginosa [2] were 0.5 µg/mL and 1 µg/mL, respectively.
Take `CC(C)(O/N=C(\C(=O)N[C@@H]1C(=O)N2C(C(=O)[O-])=C(C[n+]3ccc(N)n3CCO)CS[C@H]12)c1nsc(N)n1)C(=O)O.Cl`: the MIC against Pseudomonas aeruginosa [1] turned out to be 4 µg/mL; with Pseudomonas aeruginosa [2] it was 0.5 µg/mL; with Pseudomonas aeruginosa [3] it was 16 µg/mL.
For the compound `Cn1c(N)c(CCCCCN)c[n+]1CC1=C(C(=O)[O-])N2C(=O)[C@@H](NC(=O)/C(=N\OC(C)(C)C(=O)O)c3nsc(N)n3)[C@H]2SC1`, the MIC against Pseudomonas aeruginosa [1] worked out at 1 µg/mL (≈ 1.54 µM); with Pseudomonas aeruginosa [2] it was 2 µg/mL (≈ 3.07 µM).
The corresponding values for `Cn1c(N)c(N)c[n+]1CC1=C(C(=O)[O-])N2C(=O)[C@@H](NC(=O)/C(=N\OC(C)(C)C(=O)O)c3nsc(N)n3)[C@H]2SC1` are 0.5 µg/mL (≈ 0.861 µM) and 4 µg/mL (≈ 6.89 µM).
Taken in the same sequence, the figures for `CCCc1c[n+](CC2=C(C(=O)[O-])N3C(=O)[C@@H](NC(=O)/C(=N\OC(C)(C)C(=O)O)c4nsc(N)n4)[C@H]3SC2)n(C)c1N` were 1 µg/mL (≈ 1.65 µM) and 2 µg/mL (≈ 3.29 µM).
In the case of `Cn1c(N)c(CN)c[n+]1CC1=C(C(=O)[O-])N2C(=O)[C@@H](NC(=O)/C(=N\OC(C)(C)C(=O)O)c3nsc(N)n3)[C@H]2SC1`, the minimum inhibitory concentration (MIC) in the experiment on Pseudomonas aeruginosa [1] was determined as 0.5 µg/mL (≈ 0.841 µM); in the experiment on Pseudomonas aeruginosa [2], 4 µg/mL (≈ 6.73 µM).
In the experiment with Pseudomonas aeruginosa [3], `CC(C)(O/N=C(\C(=O)N[C@@H]1C(=O)N2C(C(=O)[O-])=C(C[n+]3ccccc3)CS[C@H]12)c1csc(N)n1)C(=O)O` [CEFTAZIDIME] had an MIC of 128 µg/mL (≈ 234 µM).
As to `Cn1c(N)c(CCCCN)c[n+]1CC1=C(C(=O)[O-])N2C(=O)[C@@H](NC(=O)/C(=N\OC(C)(C)C(=O)O)c3nsc(N)n3)[C@H]2SC1`, the MIC against Pseudomonas aeruginosa [1] was determined as 0.5 µg/mL (≈ 0.785 µM); against Pseudomonas aeruginosa [2] it was 1 µg/mL (≈ 1.57 µM).
